Converted amounts (≈) assume the structure as drawn.
Assays:
[1] = Solubility of the compound at pH 6.8; type: physicochemical; conditions: buffer
[2] = Oral bioavailability in Sprague-Dawley rat at 3 mg/kg measured upto 48 hrs by LC-MS/MS analysis; type: ADME, organism-based; conditions: in vivo
[3] = Cmax in Sprague-Dawley rat at 3 mg/kg, po and 0.5 mg/kg, iv measured upto 48 hrs by LC-MS/MS analysis; type: ADME, organism-based; parameters: dose 3 mg/kg, time <=48; conditions: in vivo
[4] = target: T1, Cystic fibrosis transmembrane conductance regulator (Homo sapiens, UniProt P13569, F508DEL); assay: Potentiation of CFTR F508del mutant (unknown origin) expressed in CHO cells assessed as chloride transport by measuring membrane potential incubated for 5 to 30 mins in presence of forskolin by Quattro assay; type: cell-based
T1 sequence (P13569 as listed by the source): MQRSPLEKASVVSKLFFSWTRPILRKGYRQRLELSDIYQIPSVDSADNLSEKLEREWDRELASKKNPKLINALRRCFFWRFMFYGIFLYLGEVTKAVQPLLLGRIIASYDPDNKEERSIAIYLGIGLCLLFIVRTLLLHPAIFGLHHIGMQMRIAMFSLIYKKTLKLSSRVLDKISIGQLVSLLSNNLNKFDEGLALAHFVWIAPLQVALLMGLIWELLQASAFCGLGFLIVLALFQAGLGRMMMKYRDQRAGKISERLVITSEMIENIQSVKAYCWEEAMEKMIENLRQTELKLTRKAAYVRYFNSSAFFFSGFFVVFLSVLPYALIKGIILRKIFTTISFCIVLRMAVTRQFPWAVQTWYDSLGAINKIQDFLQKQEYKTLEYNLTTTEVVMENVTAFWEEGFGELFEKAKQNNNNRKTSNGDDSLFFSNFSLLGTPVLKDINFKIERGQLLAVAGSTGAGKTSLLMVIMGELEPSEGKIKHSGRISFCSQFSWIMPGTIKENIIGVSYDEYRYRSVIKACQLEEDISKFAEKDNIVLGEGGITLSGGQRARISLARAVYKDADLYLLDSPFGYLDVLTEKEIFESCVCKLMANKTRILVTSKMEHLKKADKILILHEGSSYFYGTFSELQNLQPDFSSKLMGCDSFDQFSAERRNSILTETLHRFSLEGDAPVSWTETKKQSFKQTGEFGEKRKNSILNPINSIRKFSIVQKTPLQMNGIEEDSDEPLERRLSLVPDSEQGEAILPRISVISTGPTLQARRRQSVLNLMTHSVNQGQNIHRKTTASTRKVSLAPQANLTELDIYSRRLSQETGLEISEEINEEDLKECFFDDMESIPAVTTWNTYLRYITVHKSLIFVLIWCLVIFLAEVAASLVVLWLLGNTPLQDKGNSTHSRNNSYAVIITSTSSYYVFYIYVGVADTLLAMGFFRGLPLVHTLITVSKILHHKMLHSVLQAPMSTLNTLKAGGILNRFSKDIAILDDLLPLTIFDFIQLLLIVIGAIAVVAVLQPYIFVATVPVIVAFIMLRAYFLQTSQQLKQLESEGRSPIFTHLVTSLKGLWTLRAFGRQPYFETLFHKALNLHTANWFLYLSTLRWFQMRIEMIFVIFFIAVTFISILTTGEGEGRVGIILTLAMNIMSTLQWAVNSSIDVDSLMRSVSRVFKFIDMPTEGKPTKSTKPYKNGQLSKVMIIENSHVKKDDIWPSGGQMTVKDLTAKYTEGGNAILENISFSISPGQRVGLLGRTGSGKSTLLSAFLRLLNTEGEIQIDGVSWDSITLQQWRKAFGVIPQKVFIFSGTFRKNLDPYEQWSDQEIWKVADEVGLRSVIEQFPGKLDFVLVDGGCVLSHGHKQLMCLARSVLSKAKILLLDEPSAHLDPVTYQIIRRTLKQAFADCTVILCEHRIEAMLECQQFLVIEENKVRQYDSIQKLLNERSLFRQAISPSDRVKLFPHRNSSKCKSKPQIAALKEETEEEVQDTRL

[5] = test system: Cystic fibrosis transmembrane conductance regulator (Homo sapiens), P13569 [F508del]; assay: Potentiation of CFTR F508del mutant (unknown origin) expressed in CHO cells assessed as chloride transport by measuring membrane potential incubated for 5 to 30 mins in presence of forskolin by Quattro assay relative to PG-01; type: cell-based; parameters: concentration or dose not given beside the values; conditions: filed as activator, time 5-30 min
Sequence of Cystic fibrosis transmembrane conductance regulator (Homo sapiens), P13569 [F508del] (P13569 as listed by the source): as above

[6] = Clearance in Sprague-Dawley rat at 3 mg/kg, po and 0.5 mg/kg, iv measured upto 48 hrs by LC-MS/MS analysis; type: ADME, organism-based; conditions: in vivo
[7] = Volume of distribution at steady state in Sprague-Dawley rat at 3 mg/kg, po and 0.5 mg/kg, iv measured upto 48 hrs by LC-MS/MS analysis; type: ADME, organism-based; conditions: in vivo, read-out: Vdss
[8] = Mean residence time in Sprague-Dawley rat at 3 mg/kg, po and 0.5 mg/kg, iv measured upto 48 hrs by LC-MS/MS analysis; type: ADME, organism-based; conditions: in vivo
[9] = Plasma Protein binding in Sprague-Dawley rat at 5 uM incubated for 4 hrs by rapid equilibrium dialysis; type: ADME, cell-free; conditions: read-out: PPB (converted)
[10] = Cmax in Sprague-Dawley rat at 3 mg/kg, po and 1 mg/kg, iv measured upto 48 hrs by LC-MS/MS analysis; type: ADME, organism-based; parameters: dose 3 mg/kg, time <=48; conditions: in vivo
[11] = Unbound Cmax in Sprague-Dawley rat at 3 mg/kg, po and 1 mg/kg, iv measured upto 48 hrs by LC-MS/MS analysis; type: ADME, organism-based; conditions: in vivo
[12] = Volume of distribution in Sprague-Dawley rat at 3 mg/kg, po and 1 mg/kg, iv measured upto 48 hrs by LC-MS/MS analysis; type: ADME, organism-based; conditions: in vivo
[13] = Mean residence time in Sprague-Dawley rat at 3 mg/kg, po and 1 mg/kg, iv measured upto 48 hrs by LC-MS/MS analysis; type: ADME, organism-based; conditions: in vivo
[14] = Oral bioavailability in Beagle dog at 3 mg/kg after 48 hrs by LC-MS/MS analysis; type: ADME, organism-based, Canis lupus familiaris; conditions: in vivo
[15] = Oral bioavailability in cynomolgus monkey at 10 mg/kg after 48 hrs by LC-MS/MS analysis; type: ADME, organism-based, Macaca fascicularis; conditions: in vivo
[16] = Cmax in Beagle dog at 3 mg/kg, po or 0.46 mg/kg, iv after 48 hrs by LC-MS/MS analysis; type: ADME, organism-based, Canis lupus familiaris; parameters: time 48 hrs, dose 3 mg/kg; conditions: in vivo
[17] = Cmax in cynomolgus monkey at 10 mg/kg, po or 0.1 mg/kg, iv after 48 hrs by LC-MS/MS analysis; type: ADME, organism-based, Macaca fascicularis; parameters: time 48 hrs, dose 10 mg/kg; conditions: in vivo
[18] = Unbound Cmax in Beagle dog at 3 mg/kg, po or 0.46 mg/kg, iv after 48 hrs by LC-MS/MS analysis; type: ADME, organism-based, Canis lupus familiaris; conditions: in vivo
[19] = Unbound Cmax in cynomolgus monkey plasma measured at 10 mg/kg, po or 0.1 mg/kg, iv after 48 hrs by LC-MS/MS analysis; type: ADME, organism-based, Macaca fascicularis; conditions: in vivo
[20] = Clearance in Beagle dog plasma at 3 mg/kg, po or 0.46 mg/kg, iv after 48 hrs by LC-MS/MS analysis; type: ADME, organism-based, Canis lupus familiaris
[21] = Clearance in cynomolgus monkey plasma at 10 mg/kg, po or 0.1 mg/kg, iv after 48 hrs by LC-MS/MS analysis; type: ADME, organism-based, Macaca fascicularis
[22] = Clearance in Beagle dog blood at 3 mg/kg, po or 0.46 mg/kg, iv after 48 hrs by LC-MS/MS analysis; type: ADME, organism-based, Canis lupus familiaris
[23] = Clearance in cynomolgus monkey blood at 10 mg/kg, po or 0.1 mg/kg, iv after 48 hrs by LC-MS/MS analysis; type: ADME, organism-based, Macaca fascicularis
[24] = Volume of distribution at steady state in Beagle dog at 3 mg/kg, po or 0.46 mg/kg, iv after 48 hrs by LC-MS/MS analysis; type: ADME, organism-based, Canis lupus familiaris; conditions: in vivo, read-out: Vdss
[25] = Volume of distribution at steady state in cynomolgus monkey at 10 mg/kg, po or 0.1 mg/kg, iv after 48 hrs by LC-MS/MS analysis; type: ADME, organism-based, Macaca fascicularis; conditions: in vivo, read-out: Vdss
[26] = Mean residence time in Beagle dog at 3 mg/kg, po or 0.46 mg/kg, iv after 48 hrs by LC-MS/MS analysis; type: ADME, organism-based, Canis lupus familiaris; conditions: in vivo
[27] = Mean residence time in cynomolgus monkey at 10 mg/kg, po or 0.1 mg/kg, iv after 48 hrs by LC-MS/MS analysis; type: ADME, organism-based, Macaca fascicularis; conditions: in vivo
[28] = target: T1, Cystic fibrosis transmembrane conductance regulator; assay: Potentiation of CFTR F508del mutant (unknown origin) expressed in FRT cells assessed as chloride transport by measuring membrane potential in presence of forskolin; type: cell-based
[29] = test system: Cystic fibrosis transmembrane conductance regulator (Homo sapiens), P13569 [F508del]; assay: Potentiation of CFTR F508del mutant (unknown origin) expressed in FRT cells assessed as chloride transport by measuring membrane potential in presence of forskolin relative to PG-01; type: cell-based; conditions: filed as activator
[30] = target: T2, Cystic fibrosis transmembrane conductance regulator (Homo sapiens, UniProt P13569); assay: Potentiation of wild-type CFTR (unknown origin) expressed in FRT cells assessed as chloride transport by measuring membrane potential in presence of forskolin; type: cell-based
Target sequence in this assay (P13569 whole entry): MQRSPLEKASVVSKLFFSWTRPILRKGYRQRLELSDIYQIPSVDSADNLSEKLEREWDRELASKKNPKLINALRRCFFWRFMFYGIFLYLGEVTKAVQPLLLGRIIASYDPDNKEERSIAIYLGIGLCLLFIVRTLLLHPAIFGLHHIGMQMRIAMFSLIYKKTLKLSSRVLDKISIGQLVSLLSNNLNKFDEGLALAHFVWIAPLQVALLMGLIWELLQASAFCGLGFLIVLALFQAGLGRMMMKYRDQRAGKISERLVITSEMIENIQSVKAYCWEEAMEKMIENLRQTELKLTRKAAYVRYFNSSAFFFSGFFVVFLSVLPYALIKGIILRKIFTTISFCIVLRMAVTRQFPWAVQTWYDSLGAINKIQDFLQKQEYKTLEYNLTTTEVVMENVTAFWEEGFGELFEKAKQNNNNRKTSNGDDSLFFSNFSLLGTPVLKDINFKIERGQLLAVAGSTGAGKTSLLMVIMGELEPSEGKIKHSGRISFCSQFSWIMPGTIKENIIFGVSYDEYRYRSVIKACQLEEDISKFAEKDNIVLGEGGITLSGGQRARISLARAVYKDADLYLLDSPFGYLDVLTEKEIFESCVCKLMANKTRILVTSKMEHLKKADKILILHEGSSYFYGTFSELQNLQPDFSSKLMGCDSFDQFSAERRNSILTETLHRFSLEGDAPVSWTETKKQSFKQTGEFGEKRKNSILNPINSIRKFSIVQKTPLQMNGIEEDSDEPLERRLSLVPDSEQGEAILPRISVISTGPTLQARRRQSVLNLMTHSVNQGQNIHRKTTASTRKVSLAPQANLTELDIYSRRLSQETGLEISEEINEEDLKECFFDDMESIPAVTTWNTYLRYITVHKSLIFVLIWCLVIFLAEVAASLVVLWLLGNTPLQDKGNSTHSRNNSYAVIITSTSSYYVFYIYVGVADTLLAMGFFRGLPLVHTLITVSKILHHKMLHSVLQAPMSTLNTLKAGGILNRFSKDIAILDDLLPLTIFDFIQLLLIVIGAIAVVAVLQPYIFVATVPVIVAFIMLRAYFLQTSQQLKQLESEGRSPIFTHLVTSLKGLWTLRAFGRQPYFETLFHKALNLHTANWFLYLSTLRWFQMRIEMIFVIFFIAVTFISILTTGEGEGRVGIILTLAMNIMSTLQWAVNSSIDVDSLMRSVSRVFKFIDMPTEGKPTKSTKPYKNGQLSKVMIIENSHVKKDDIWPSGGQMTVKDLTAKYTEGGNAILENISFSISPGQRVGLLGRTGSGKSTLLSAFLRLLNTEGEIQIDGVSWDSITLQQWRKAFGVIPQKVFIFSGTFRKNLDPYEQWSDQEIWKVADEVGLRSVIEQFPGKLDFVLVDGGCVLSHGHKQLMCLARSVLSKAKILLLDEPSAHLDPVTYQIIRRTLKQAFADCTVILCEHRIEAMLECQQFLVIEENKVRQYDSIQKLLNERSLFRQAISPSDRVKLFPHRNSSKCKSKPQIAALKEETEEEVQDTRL

[31] = target: T2, Cystic fibrosis transmembrane conductance regulator; assay: Potentiation of wild-type CFTR (unknown origin) expressed in FRT cells assessed as chloride transport by measuring membrane potential in presence of forskolin relative to PG-01; type: cell-based; conditions: filed as activator
Target sequence in this assay (P13569 whole entry, looked up): as the sequence (P13569 whole entry) above

[32] = target: Cystic fibrosis transmembrane conductance regulator (Homo sapiens, UniProt P13569, G551D); assay: Potentiation of CFTR G551D mutant (unknown origin) expressed in FRT cells assessed as chloride transport by measuring membrane potential in presence of forskolin; type: cell-based
Sequence of Cystic fibrosis transmembrane conductance regulator (Homo sapiens, UniProt P13569, G551D) (P13569 whole entry G551D): as the sequence (P13569 whole entry) above, with G551D counted along it

[33] = test system: Cystic fibrosis transmembrane conductance regulator (Homo sapiens), P13569 [G551D]; assay: Potentiation of CFTR G551D mutant (unknown origin) expressed in FRT cells assessed as chloride transport by measuring membrane potential in presence of forskolin relative to PG-01; type: cell-based; conditions: filed as activator
Sequence of Cystic fibrosis transmembrane conductance regulator (Homo sapiens), P13569 [G551D] (P13569 whole entry G551D): as the sequence (P13569 whole entry) above, with G551D counted along it

[34] = target: T1, Cystic fibrosis transmembrane conductance regulator; assay: Potentiation of CFTR F508 deletion mutant (unknown origin) expressed in HBE cells assessed as change in short circuit current in presence of forskolin and amiloride; type: cell-based
[35] = test system: Cystic fibrosis transmembrane conductance regulator (Homo sapiens), P13569 [F508del]; assay: Potentiation of CFTR F508 deletion mutant (unknown origin) expressed in HBE cells assessed as change in short circuit current in presence of forskolin and amiloride relative to PG-01; type: cell-based; conditions: filed as activator
[36] = target: T2, Cystic fibrosis transmembrane conductance regulator; assay: Potentiation of wild type CFTR (unknown origin) expressed in HBE cells assessed as change in short circuit current in presence of forskolin and amiloride; type: cell-based
Target sequence in this assay (P13569 whole entry): as the sequence (P13569 whole entry) above

[37] = target: T2, Cystic fibrosis transmembrane conductance regulator; assay: Potentiation of wild type CFTR (unknown origin) expressed in HBE cells assessed as change in short circuit current in presence of forskolin and amiloride relative to PG-01; type: cell-based; conditions: filed as activator
Target sequence in this assay (P13569 whole entry, looked up): as the sequence (P13569 whole entry) above

[38] = Toxicity in Wistar Han rat assessed as NOAEL; conditions: in vivo, dose 10 mg/kg
[39] = Toxicity in Wistar Han rat assessed as tolerability at 100 mg/kg, po after 2 days; type: organism-based; conditions: in vivo, 48 h, time 2 day
[40] = Toxicity in human assessed as tolerability upto […], po bid; type: organism-based; conditions: in vivo
[41] = Clearance in Sprague-Dawley rat at 3 mg/kg, po and 1 mg/kg, iv measured upto 48 hrs by LC MS/MS analysis; type: ADME, organism-based; conditions: in vivo
[42] = Plasma Protein binding in human incubated for 4 hrs by equilibrium dialysis method; type: ADME, cell-free; conditions: read-out: PPB (converted)
[43] = Drug metabolism in Sprague-Dawley rat bile assessed as glutathione adduct M8 formation at 1 mg/kg, po after 24 hrs by LC MS/MS analysis; type: ADME, organism-based; conditions: in vivo
[44] = Drug metabolism in Sprague-Dawley rat bile assessed as glutathione adduct M9 formation at 1 mg/kg, po after 24 hrs by LC MS/MS analysis; type: ADME, organism-based; conditions: in vivo

SMILES	solubility [1]	bioavailability [2]	EC50 [4]	Activity [5]	fraction unbound at 4 h, 5 µM [9]	Cmax [10]	fCmax [11]	Vd [12]	MRT [13]	EC50 [28]	Activity [29]	EC50 [30]	Activity [31]	EC50 [32]	Activity [33]	EC50 [34]	Activity [35]	NOAEL [38]	clearance [41]	also measured
Nc1cc(C(F)(F)F)c(Br)nc1C(=O)NC[C@@H](O)C(F)(F)F	177 µg/mL (≈ 447 µM)	32%	0.009 µM	100%	–	–	–	–	–	–	–	–	–	–	–	–	–	–	–	Cmax [3]: 271 nM; clearance [6]: 53 mL/min/kg; Vd [7]: 3.2 L/kg; MRT [8]: 1 h
COc1nc(C(=O)NC[C@](C)(O)C(F)(F)F)c(N)cc1C(F)(F)F [ICENTICAFTOR]	237 µg/mL (≈ 656 µM)	90%	0.047 µM	96%	0.097	1360 nM	132 nM	3 L/kg	10.2 h	0.079 µM	92%	0.113 µM	79%	0.497 µM	40%	0.039 µM	84%	10 mg/kg	5 mL/min/kg	bioavailability [14]: 146%; bioavailability [15]: 26%; Cmax [16]: 1950 nM; Cmax [17]: 2300 nM; fCmax [18]: 102 nM; fCmax [19]: 276 nM; clearance [20]: 29 mL/min/kg; clearance [21]: 18 mL/min/kg; clearance [22]: 41 mL/min/kg; clearance [23]: 20.2 mL/min/kg; Vd [24]: 7.5 L/kg; Vd [25]: 3.5 L/kg; MRT [26]: 4.4 h; MRT [27]: 3.3 h; EC50 [36]: 0.072 µM; Activity [37]: 87%; Activity [39]: Non-Toxic; Activity [40]: Non-Toxic
C[C@](O)(CNC(=O)c1nc(Br)c(C(F)(F)F)cc1N)C(F)(F)F	140 µg/mL (≈ 341 µM)	114%	0.015 µM	107%	0.031	634 nM	25 nM	6.5 L/kg	6.4 h	0.018 µM	106%	0.043 µM	140%	0.15 µM	67%	0.025 µM	113%	< 10 mg/kg	17 mL/min/kg	fraction unbound at 4 h [42]: 0.025; Drug metabolism [43]: Metabolite_Detected; Drug metabolism [44]: Metabolite_Detected
